How the values were obtained:
Assay type in all cases: cell-based
cGMP in rat aortic rings = assay: Assessment of aortic production of cGMP stimulated by ACh in the presence of LNA (radioimmunoassay); conditions: compound at 3×10^−9 M, 30-minute incubation, ACh 10^−5 M 1 minute, LNA 3×10^−6 M, isobutylmethylxanthine 10^−5 M
Experimental: Involvement of the NO Route in the Vascular Protective Effects Detected: Assessment of Aortic Production of cGMP
By diffusing to the smooth muscle cells, the NO produced by the endothelial cells activates soluble guanylate cyclase, which brings about an increase in cyclic GMP which is responsible for relaxation.
The rat aortic rings are prepared as previously. Assessment is made of the effects of a 30-minute incubation of the compounds of the invention at different concentrations on the production of cGMP stimulated by ACh (10^−5 M—1 minute) in the presence of LNA (3×10^−6 M). The experiments are carried out in the presence of isobutylmethylxanthine (10^−5 M) in order to avoid degradation of the cGMP by phosphodiesterases. The rings are frozen in liquid nitrogen and maintained at −80° C. until the assay is carried out. The cGMP content is assessed by radioimmunoassay and expressed in relation to the amount of protein contained in the tissue (assay by the Bradford method).

[1] = tested on: aortic rings of New Zealand rabbits; assay: Vascular protective effects with respect to endothelial dysfunction induced by a system generating O2^− (XO-Hypo), ACh relaxation of aortic rings; conditions: compound at 3×10^−9 M; rabbit aortic rings; XO 3 mU/ml, Hypo 10^−4 M; difference between percentages of maximum ACh relaxation in presence or absence of product
Experimental: the second model consists of inducing oxidative stress in vitro using an enzymatic system that generates O2^− (xanthine oxidase —XO and hypoxanthine—Hypo).
The thoracic aorta of a Wistar rat (325-375 g), anaesthetised by the intraperitoneal route using sodium pentobarbital (30 mg/kg), is removed and dissected into rings of 3 mm in length. Each ring is suspended from an isometric tension sensor connected to a recording system and the initial tension applied is 2.5 g. The physiological solution used, which is thermostatically maintained at 37° C., and oxygenated (95% O2+5% CO2), comprises (in mM): NaCl 112.0, KCl 5.0, CaCl2 2.5, KH2PO4 1.0, MgSO4 1.2, NaHCO3 25.0, glucose 11.5, Ca-EDTA 0.016.
(§1) After a 90-minute stabilisation period, the preparations are contracted using phenylephrine (PHE 10^−6 M) and relaxed by adding 10^−5 M of acetylcholine in order to verify the 10 integrity of the endothelial layer. If that is confirmed, the preparations are rinsed and a concentration of the test product (or its solvent) is added to the medium, followed by 3.10^−7 M of N^G-nitro-L-arginine (LNA). The preparations are again contracted using phenylephrine and, after 30 minutes, the relaxations due to acetylcholine (ACh—10^−8M to 10^−5 M) are assessed in the presence of indomethacin (10^−5M).
(§2) The relaxation values are expressed as a percentage relative to the maximum contraction caused by PHE. […]

[2] = tested on: thoracic aorta rings of a Wistar rat; assay: Vascular protective effects with respect to endothelial dysfunction induced by an inhibitor of NOS (LNA), ACh relaxation of aortic rings; conditions: compound at 3×10^−9 M, LNA 3.10^−7 M, difference between percentages of maximum ACh relaxation in presence or absence of product
Excerpt: Under standard in vitro conditions, relaxation of aortic rings caused by acetylcholine (ACh), which relaxation is totally dependent upon the presence of endothelium, reflects the production of NO (stimulated by ACh), which by diffusing to smooth muscle cells brings about arterial relaxation (Nature, 1980, 288, 373).
the first model consists of inducing inhibition of the relaxation due to ACh by blocking the enzymatic activity (endothelial NOS) responsible for the production of NO.
Vascular Protective Effects with Respect to Endothelial Dysfunction Induced by an Inhibitor of NOS
The thoracic aorta of a Wistar rat (325-375 g), anaesthetised by the intraperitoneal route using sodium pentobarbital (30 mg/kg), is removed and dissected into rings of 3 mm in length. […]
as §1, with “If that is confirmed, the preparations are rinsed and a concentration of the test product (or its solvent) is added to the medium, followed by 3.10^−7 M of N^G-nitro-L-arginine (LNA).” left out
as §2

O=S(=O)(NC1CCN(CCc2coc3ccccc23)CC1)c1cccc2cnccc12 [Example 8, N-{1-[2-(Benzofuran-3-yl)ethyl]-4-piperidyl}-5-isoquinolinesulphonamide]
increase of the production of cGMP stimulated by ACh in the presence of LNA (cGMP in rat aortic rings): 142.7% | inhibition of the endothelial dysfunction induced by the XO-Hypo combination [1]: 28.3% | inhibition of the endothelial dysfunction induced by LNA [2]: 23%
